{"source": "patent EP0279150A1", "about": "“5-Oxy-substituted-3-aminochroman compounds, processes for their preparation, pharmaceutical compositions containing them and methods of treatment therewith” (ASTRA LAKEMEDEL AKTIEBOLAG, priority 1986, dated 1988)", "key": {"[1]": {"biological_target": "5-HT₁", "test": "Receptor binding assay, ³H-5-HT", "conditions": "³H-5-HT (5 nM) binding, rat brain (striatal) membranes, 10 minutes at 37°C; read-out: IC₅₀", "method": "(§1) The method of Peroulka & Snyder (Mol.Pharmacol. 16, 687-699, 1979) was used. Male Sprague-Dawley rats weighing 150-200 g were decapitated, and their brains were rapidly removed. The striata were dissected, pooled and homogenized in 50 mM Tris-HCl buffer (pH 7.6). The membrane fraction was collected by centrifugation (48 000 g for ten minutes), washed once with the buffer, and resuspended in 50 mM Tris HCl (pH 7.6) containing 0.1% ascorbic acid, 10 mM paragyline, 120 mM NaCl, 5 mM KCl, 2 mM CaCl₂ and 1 mM MgCl₂. The suspension was preincubated at 37°C for 10 minutes and then kept on ice until use.\n(§2) The assays have been carried out using a cell harvester equipment. The incubations were made in quadruplicate, each well containing membrane suspension, ³H-spiperone (0.4 nM) or ³H-5-HT (5 nM) and the test compound in a final volume of 0.5 ml. After incubation for 10 minutes at 37°C, the contents of the wells were rapidly filtered and washed on Whatman GF/B filters using the Cell harvester. The specific binding was defined as the difference of radioligand bound in the presence and in the absence of a specific displacer (d-LSD, lµM and 5-HT, 10 µM for ³4-spiperone and ³H-5-HT, respectively). The test results are expressed as IC₅₀. The IC₅₀ value is given in nM, indicates the concentration of the test substance which reduces the amount of specifically bound radioligand by 50%.."}, "[2]": {"biological_target": "T1, 5-HT₂ (Rattus norvegicus, UniProt P14842)", "T1 construct": "from tissue", "T1 sequence (P14842 whole entry)": "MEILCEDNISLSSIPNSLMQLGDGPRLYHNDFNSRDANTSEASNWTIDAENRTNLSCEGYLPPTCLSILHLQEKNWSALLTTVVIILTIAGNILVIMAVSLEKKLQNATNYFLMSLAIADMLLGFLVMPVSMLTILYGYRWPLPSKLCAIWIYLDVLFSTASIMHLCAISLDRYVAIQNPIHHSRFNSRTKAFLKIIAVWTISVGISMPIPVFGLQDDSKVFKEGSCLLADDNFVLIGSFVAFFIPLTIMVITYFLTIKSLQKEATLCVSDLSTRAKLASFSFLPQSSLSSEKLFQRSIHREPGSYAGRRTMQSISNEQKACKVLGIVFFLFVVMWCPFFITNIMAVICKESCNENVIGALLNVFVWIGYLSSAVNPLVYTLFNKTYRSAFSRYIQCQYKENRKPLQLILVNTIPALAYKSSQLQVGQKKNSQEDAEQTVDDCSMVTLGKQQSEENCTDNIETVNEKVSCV", "test": "Receptor binding assay, ³H-Ketanserin", "conditions": "³H-Ketanserin binding, rat brain membranes"}, "[3]": {"biological_target": "T2, Dopamine-D₂ (Rattus norvegicus, UniProt P61169)", "T2 construct": "The striata were dissected, pooled and homogenized in 50 mM Tris-HCl buffer (pH 7.6); from tissue; host or cells: rat striatum membrane fraction", "T2 sequence (P61169 whole entry)": "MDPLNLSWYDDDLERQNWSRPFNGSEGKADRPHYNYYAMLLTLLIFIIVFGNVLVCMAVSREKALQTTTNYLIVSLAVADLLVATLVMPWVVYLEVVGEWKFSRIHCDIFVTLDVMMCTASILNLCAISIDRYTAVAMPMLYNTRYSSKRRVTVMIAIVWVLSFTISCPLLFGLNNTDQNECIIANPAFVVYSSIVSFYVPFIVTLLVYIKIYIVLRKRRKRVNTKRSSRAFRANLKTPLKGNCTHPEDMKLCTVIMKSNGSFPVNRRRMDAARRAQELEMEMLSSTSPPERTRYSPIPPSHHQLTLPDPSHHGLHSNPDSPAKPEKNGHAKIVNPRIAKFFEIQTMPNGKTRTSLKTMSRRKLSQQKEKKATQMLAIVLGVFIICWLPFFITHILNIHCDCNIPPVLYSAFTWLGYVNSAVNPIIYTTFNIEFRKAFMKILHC", "test": "Receptor binding assay, ³H-spiroperidol", "conditions": "³H-spiroperidol binding, rat brain membranes", "method": "as §1, §2"}}, "note": "pIC50: −log10 of the molar value.", "data": [{"smiles": "CCCN(CCC)C1COc2cccc(O)c2C1", "note": "(stereo not drawn) [3-di-propylamino-5-hydroxychroman, 3-dipropylamino-5-hydroxychroman]", "values": [{"measurement": "pIC50", "setting": "[1]", "value": 7.08}, {"measurement": "activity in ³H-Ketanserin (5-HT₂) receptor binding", "setting": "[2]", "value": "inactive"}, {"measurement": "activity in ³H-spiroperidol (Dopamine-D₂) receptor binding", "setting": "[3]", "value": "inactive"}]}]}
